Results taken from patent US8697356B2, “Single-molecule-format probe and utilization thereof” (National Institute of Advanced Industrial Science and …, priority 2008, dated 2014).

Experiments:
Assay type in all cases: cell-based, African green monkey
COS-7 cells = experiment: Saturation rate of substrate in COS-7 cells carrying pCPG-ctrl (Example 13); conditions: HBSS buffer
Procedure: A reaction rate of coelenterazine saturation in COS-7 cells was monitored. […] The cells on the plate were washed once with HBSS buffer and were saturated with 500 μL HBSS buffer. The luminescence variances after coelenterazine addition were monitored with a bioluminescence plate reader (Mithras LB 940; Berthold).

cytosolic Ca^2+ [1] = experiment: Retention of Ca^2+ levels after wash-out, COS-7 cells carrying pCPG (Example 9); conditions: CPG; 20 minutes stimulation; thapsigargin or cyproheptadine added to 0.5 mM histamine or ATP; 2 μM ionomycin
Procedure: Retention of cytosolic calcium Ca^2+ levels in response to an external stimulus were monitored on the basis of the luminescence intensities from COS-7 cells carrying pCPG.
The cells were washed twice with PBS after ligand stimulation, and harvested by trypsinization and centrifugation. This wash-out terminates the external stimulation of ligands for elevating cytosolic Ca^2+ levels. The cells were resuspended with a 40 mL substrate buffer carrying coelenterazine, and then transferred to a test tube to determine the luminescence with a luminometer (Minilumat LB9506).

cytosolic Ca^2+ [2] = experiment: Ca^2+ dynamics in COS-7 cells transfected with pCPG or pSMG (Example 8); conditions: 1 mM histamine, CPG
Text: The dynamics of cytosolic Ca^2+ in COS-7 cells were monitored in the cells transfected with pCPG and in the cells transfected with SMG shown in FIG. 14 as a control. The free Ca^2+ was a representative second messenger in living mammalian cells. […] The outer terminals were respectively fused with M13 peptide and calmodulin. SMG is different from CPG in that calmodulin and M13 peptide are linked between N- and C-terminal fragments. That is, the luciferases are not circularly permutated in SMG.
As in Example 2, COS-7 cells cultured in a black, glass-bottom plate (24-well) were transfected with pCPG or pSMG, and stocked in a cell incubator for 16 hours. The cells were saturated with a 300 μL Hank's balanced salt solution (HBSS) buffer containing coelenterazine.

cytoplasm Ca^2+ = experiment: Ligand affinity of CPG and CPG-ctrl, histamine-triggered Ca^2+ (Example 12)
Text: First, GLuc was dissected at Q105, and the original N- and C-terminals of the fragments were circularly permutated with a 10 GS linker. The outer terminals were respectively fused with M13 and CaM to form CPG. CPG-ctrl which is different from CPG only in that GLuc was not circularly permutated was parallelly formed as a control probe of CPG by the use of the same components as CPG (FIG. 20).
As in Example 2, COS-7 cells cultured in a black, glass-bottom plate (24-well) were transiently transfected with pCPG or pCPG-ctrl, and stocked in a cell incubator for 16 hours. The cells were saturated with a 300 μL HBSS buffer containing coelenterazine.

Oc1ccc(Cc2nc3c(Cc4ccccc4)nc(-c4ccc(O)cc4)cn3c2O)cc1 [coelenterazine]
time in which the COS-7 cells were saturated (COS-7 cells): 8.5 min

Nc1ncnc2c1ncn2[C@@H]1O[C@H](COP(=O)(O)OP(=O)(O)OP(=O)(O)O)[C@@H](O)[C@H]1O [ATP]
cytosolic Ca^2+ levels (luminescence) after wash-out (cytosolic Ca^2+ [1]): quickly decreased

C/C=C(/C)C(=O)O[C@H]1C(C)=C2[C@H]([C@@H]1OC(=O)CCCCCCC)[C@@](C)(OC(C)=O)C[C@H](OC(=O)CCC)[C@@]1(O)[C@H]2OC(=O)[C@@]1(C)O [thapsigargin]
cytosolic Ca^2+ levels (luminescence) after wash-out (cytosolic Ca^2+ [1]): retained

NCCc1c[nH]cn1 [histamine]
time to reach plateau of luminescence (cytosolic Ca^2+ [2]): ~10 min | concentration from which CPG started sensing (cytoplasm Ca^2+): 0.25 mM | time to reach plateau of luminescence (cytoplasm Ca^2+; 1 mM histamine, CPG): ~10 min

C[C@H](CCC(=O)O)C[C@H](C)C[C@H](C)C(=O)/C=C(\O)[C@H](C)C[C@H](C)C/C=C/[C@@H](C)[C@@H](O)[C@@H](C)[C@@H](O)C[C@@H]1CC[C@@](C)([C@H]2CC[C@@](C)([C@@H](C)O)O2)O1 [Ionomycin, ionomycin]
cytosolic Ca^2+ levels (luminescence) after wash-out (cytosolic Ca^2+ [1]): retaining certain levels
